Laboratory results from patent US20080171716A1, “NUCLEIC ACID MODULATION OF TOLL-LIKE RECEPTOR-MEDIATED IMMUNE STIMULATION” (Protiva Biotherapeutics, Inc., priority 2006, published 2008).
Entries after “also recorded” stand apart in the source; their conditions may differ. m = 2'-O-methyl; r = 2'-OH (RNA)

Experiments:
TLR7 = molecular target: T1, TLR7 (Homo sapiens, UniProt Q9NYK1); experiment: Loxoribine (TLR7 agonist)-induced IFN-α/IL-6 production in human PBMCs; format: cell-based; conditions: for reduction of Lox induced IFN-α / reduction of Lox induced IL-6: 300 μM Lox, formulated 2′OMe RNA 1.5 μg/ml (~0.2 μM), 24 h, replicate experiments; for IL-6 levels induced by naked loxoribine / level of IFN-α induced by naked loxoribine: SNALP-encapsulated ssRNA added before naked agonist, supernatant at 24 hr, ELISA
T1 construct: Human PBMCs were isolated from whole blood of healthy donors; endogenous in cells; host or cells: primary human PBMCs from healthy donors
T1 sequence (Q9NYK1 27-1049): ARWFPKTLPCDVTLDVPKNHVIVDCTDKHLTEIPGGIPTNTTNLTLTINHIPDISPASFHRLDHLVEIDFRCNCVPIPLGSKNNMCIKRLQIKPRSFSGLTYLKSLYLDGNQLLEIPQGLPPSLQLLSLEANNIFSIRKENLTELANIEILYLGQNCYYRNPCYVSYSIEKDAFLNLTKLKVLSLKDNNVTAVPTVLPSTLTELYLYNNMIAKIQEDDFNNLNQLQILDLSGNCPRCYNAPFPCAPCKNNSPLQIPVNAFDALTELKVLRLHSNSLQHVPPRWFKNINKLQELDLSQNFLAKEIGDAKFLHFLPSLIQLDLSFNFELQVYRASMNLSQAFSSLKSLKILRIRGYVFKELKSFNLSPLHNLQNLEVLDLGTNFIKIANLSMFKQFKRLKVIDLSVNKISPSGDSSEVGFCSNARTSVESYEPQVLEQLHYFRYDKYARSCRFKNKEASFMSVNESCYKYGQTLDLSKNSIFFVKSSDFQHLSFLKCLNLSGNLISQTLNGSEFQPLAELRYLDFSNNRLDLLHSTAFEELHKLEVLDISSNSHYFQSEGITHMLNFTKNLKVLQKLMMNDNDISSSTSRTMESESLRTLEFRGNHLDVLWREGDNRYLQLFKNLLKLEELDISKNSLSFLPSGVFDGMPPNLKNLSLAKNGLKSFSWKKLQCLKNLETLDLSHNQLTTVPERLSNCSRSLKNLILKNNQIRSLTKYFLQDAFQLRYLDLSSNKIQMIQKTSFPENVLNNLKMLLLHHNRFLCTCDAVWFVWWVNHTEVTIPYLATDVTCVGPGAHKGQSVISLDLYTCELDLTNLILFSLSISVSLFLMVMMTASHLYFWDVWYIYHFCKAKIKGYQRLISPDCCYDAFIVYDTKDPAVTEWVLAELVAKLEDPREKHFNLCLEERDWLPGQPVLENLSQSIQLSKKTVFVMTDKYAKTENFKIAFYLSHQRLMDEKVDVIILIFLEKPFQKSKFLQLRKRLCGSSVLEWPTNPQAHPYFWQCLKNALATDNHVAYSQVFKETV
Method: (§1) All RNA molecules used in this study were heated at 90° C. for 3 min. and then placed at 37° C. for 60 min. Non-denaturing PAGE analysis on a 20% polyacrylamide gel was performed to confirm that ssRNA molecules were intact and that no duplexes had formed upon heating. The RNA molecules were encapsulated in a SNALP formulation comprising PEG-cDMA:DLinDMA:cholesterol:DSPC in a 2:40:48:10 mol % ratio (2:40 SNALP), prepared using a syringe press process.
(§2) Fresh human peripheral blood mononuclear cells (PBMCs) were isolated and seeded at about 3×10^5 cells/well in a total volume of 180 μl. Next, 20 μl of the appropriate SNALP diluted in PBS or 10 μl of naked TLR agonist were added to the PBMCs. For time course experiments, PBMCs were pretreated with UmodS ssRNA or a control and the appropriate naked TLR agonist was added at 0, 0.5, or 2 hours after pretreatment. When the SNALP and naked TLR agonist were added separately, the SNALP was added first followed by the naked TLR agonist. At t=24 hr., the cell supernatant was harvested and IFN-α and/or IL-6 levels were determined using ELISA.
(§3) Lipid Encapsulation of RNA and ODN. RNA or ODN were encapsulated in liposomes by a process of spontaneous vesicle formation as described in Judge et al., supra, and Jeffs et al., Pharm. Res., 22:362-372 (2005).
(§4) Cell Isolation and Culture. Human PBMCs were isolated from whole blood of healthy donors by a standard Ficoll-Hypaque density centrifugation. Blood was diluted 1:1 with PBS, layered onto Ficoll-Paque Plus, and centrifuged at 1600 RPM for 30 min. PBMCs were washed in PBS twice followed by resuspension in complete media (RPMI 1640, 10% heat inactivated FBS, 2 mM L-glutamine, and 1% penicillin/streptomycin). PBMCs were plated at 2.5×10^5 cells/well in 96 well plates for cytokine induction assays.
(§5) Loxoribine (InvivoGen; San Diego, Calif.), polyIC (Sigma-Aldrich; St. Louis, Mo.), and formulated nucleic acids were diluted in PBS and added to either human PBMC or Flt3L DC cultures. Cells were incubated 24 h at 37° C. before supernatants were assayed for cytokines by ELISA.
(§6) Cytokine ELISA. All cytokines were quantified using sandwich ELISA kits according to the manufacturer's instructions. These were mouse and human IFN-α (PBL Biomedical; Piscataway, N.J.) and IL-6 (eBioscience; San Diego, Calif.).

TLR7/8 = experiment: Cytokine induction in human PBMCs by immunostimulatory RNA, alone or co-formulated with modified ssRNA in the same SNALP/lipid particle; format: cell-based; conditions: for immunostimulatory effects (IFN-α induction) of ApoB antisense ssRNA when co-formulated / immunostimulatory effects (IFN-α induction) of ApoB siRNA duplex when co-formulated: co-formulated in the same SNALP; for immunostimulatory effects (IFN-α induction) of ApoB antisense ssRNA when co-formulated: 1:1 molar ratio; for immunostimulatory effects (IFN-α induction) of ApoB siRNA duplex when co-formulated: equimolar
Method: as §1, §2
The ssRNA molecules used in this study were heated at 90° C. for 3 min. and then placed at 37° C. for 60 min to disrupt any potential secondary structure. Non-denaturing PAGE analysis on a 20% polyacrylamide gel was performed to confirm that ssRNA molecules were intact and that no duplexes had formed upon heating. siRNA duplexes were prepared by annealing equimolar concentrations of two deprotected and desalted ssRNA oligonucleotides using standard procedures. Formation of annealed siRNA duplexes was confirmed by non-denaturing PAGE analysis on a 20% polyacrylamide gel. The RNA molecules were encapsulated in a 2:40 SNALP formulation prepared using a syringe press process.
Fresh human peripheral blood mononuclear cells (PBMCs) were isolated and seeded at about 3×10^5 cells/well in a total volume of 180 μl. Next, 20 μl of the appropriate SNALP diluted in PBS were added to the PBMCs. At t=24 hr., the cell supernatant was harvested and IFN-α and/or IL-6 levels were determined using an enzyme-linked immunosorbent assay (ELISA). For example, IFN-α and IL-6 levels can be measured using a sandwich ELISA kit available from PBL Biomedical (Piscataway, N.J.) and eBioscience (San Diego, Calif.), respectively.
as §3, §4, §5, §6

[1] = human PBMCs, equimolar amounts in the same SNALP, 24 h
[2] = human PBMCs, co-encapsulated in equimolar amounts in the same SNALP, 24 hr
[3] = human PBMCs, 24 h, listed as Luc-mU

Row | Substance | reduction of Lox induced IFN-α (TLR7) | reduction of Lox induced IL-6 (TLR7) | IL-6 levels induced by naked loxoribine (TLR7) | level of IFN-α induced by naked loxoribine (TLR7) | cytokine production from human PBMCs when co-formulated with immunostimulatory RNA (TLR7/8; human PBMCs, co-formulated with immunostimulatory ssRNA) | IFN-α levels induced by β-gal antisense ssRNA when co-encapsulated (TLR7/8; [1]) | IL-6 levels induced by β-gal antisense ssRNA when co-encapsulated (TLR7/8; [1]) | IFN-α levels induced by β-gal antisense ssRNA when co-encapsulated (TLR7/8; human PBMCs, equimolar amounts in the same SNALP, 24 h, listed as (mU)21) | IFN-α production induced by the RNA alone (TLR7/8; human PBMC cultures, lipid-formulated RNA alone, doses 0.1 to 3 μg/ml) | IFN-α levels induced by TLR7/8 agonist RNA40 (TLR7/8; [2]) | IL-6 levels induced by TLR7/8 agonist RNA40 (TLR7/8; [2]) | immunostimulatory effects (IFN-α induction) of ApoB antisense ssRNA when co-formulated (TLR7/8; human PBMCs, 24 h) | immunostimulatory effects (IFN-α induction) of ApoB antisense ssRNA when co-formulated (TLR7/8; [3]) | immunostimulatory effects (IFN-α induction) of ApoB siRNA duplex when co-formulated (TLR7/8; human PBMCs, 24 h) | immunostimulatory effects (IFN-α induction) of ApoB siRNA duplex when co-formulated (TLR7/8; [3])
1 | polyUmod21: 2′OMe-uridine homopolymer of 21 nucleotides in length (UUUUUUUUUUUUUUUUUUUUU; all 2'-O-methyl, backbone not given here) | 72+/−5% | 80+/−1% | inhibited | inhibited | equally as effective at inhibiting cytokine production | significantly reduced | significantly reduced | inhibit | – | – | – | – | – | – | –
2 | Luc UmodS: Luc sense strand ssRNA with 2′OMe at uridines: GAmUmUAmUGmUCCGGmUmUAmUGmUAUU (sense GAUUAUGUCCGGUUAUGUAUU; sugars from the 5' end rrmmrmrmrrrrmmrmrmrrr, backbone not given here) | 55+/−16% | 62+/−10% | inhibited | dose-dependently decrease; also recorded: inhibited | – | abrogated | – | – | do not induce measurable IFN-α production | significantly reduce | significantly reduce | abolished | abrogated | significantly reduced | abrogated
